One may read the bioavailability as dose-corrected exposure relative to a reference, in per cent.

Molecules are shown by their SMILES. Counter-ions that a name gives are not always drawn. Like-named read-outs stand apart in the source and are kept apart here.

The subject of data set [1] is Jurkat cells. The experiment in a line: Measurement of Inhibitory Effect on Leukocyte Functions (adhesion of Jurkat cells to ligand-expressing cells or ligand-immobilized plate). Format: cell-based. To be noted: Homo sapiens, 0.5 h, read-out: IC50 (concentration at which the number of adherent cells is reduced by 50%). The procedure: Jurkat cells, which are the cell line originated from human acute T cell […], were allowed to react with BCECF-AM at 37° C. for 20 minutes to fluorescently label the cells. The fluorescently labelled Jurkat cells were allowed to react with ligand-expressing cells or with a ligand-immobilized plate at 37° C. for 30 minutes. After removing non-adherent cells by washing, 1% NP40 was added thereto to lyse the adherent cells, and fluorescence intensity was measured with Cytofluor 2300 (Millipore). From the obtained fluorescence intensity, the number of adherent cells was calculated. Each test compound was reacted with the Jurkat cells before the beginning of the adhesion reaction. In Table 18, the IC50 of each compound (i.e. the concentration at which the number of adherent cells is reduced by 50%) is shown.

The test system of data set [2] is Mouse Experimental Autoimmune Encephalomyelitis Model. The experiment in a line: Inhibitory Effect of Compounds Against Mouse Experimental Autoimmune Encephalomyelitis Model. Type of data set: in vivo. Conditions: orally 50 mg/kg every day from one day before inoculation of PLP139-151; female SJL mouse; scored at Days 11, 12 or 14. The procedure:
This method was carried out in accordance with the literature “Int. Immunol., 9, 1243-1251 (1997)”.
A PBS solution containing 2 mg/mL partial synthetic peptide (PLP139-151) of proteolipid protein was mixed with an equal amount of Freund's complete adjuvant, and the resulting mixture was inoculated intracutaneously into both lateral regions of 7-week-old female SJL mouse (Charles River Laboratories Japan) in a total amount of 0.1 mL (0.05 mL per one side). The compounds described in Example 77, Example 78, Example 80, Example 81, Example 83 and Example 84 were orally administered at a dose of 50 mg/kg every day from one day before the inoculation, and neurological symptoms was scored (0: normal, 1: limp tail or hind limb weakness, 2: limp tail and hind limb weakness, 3: partial hind limb paralysis, 4: complete hind limb paralysis, 5: moribund state) at Days 11, 12 or 14. The scoring was carried out by using the method described in Current Protocols in Immunology (John Wiley & Sons, Inc).

Data set [3] can be described thus: Pharmacokinetic Evaluation in Rats. Type of data set: in vivo. Conditions: rat, male SD rats, administered orally or intravenously, 0.5 mg/mL dosing solution, plasma up to 8 hours; for clearance: intravenous, read-out: CLtot (total clearance) (converted); for bioavailability: oral, read-out: BA (bioavailability). The procedure: Each compound was dissolved in PBS or PBS containing 10% PEG, thereby preparing 0.5 mg/mL dosing solution. The compound was administered orally or intravenously to male SD rats (7 to 9 weeks old). Blood was collected with time from the tail vein at time points up to 8 hours after the administration, and obtained blood was centrifuged to collect blood plasma. The blood plasma was pretreated by using the solid-phase extraction method, and the concentration of the compound was analyzed with LC/MS/MS (ESI negative mode).
As the Comparative Compound, 2-[4-((3,5-dichlorobenzensulfonylamino)methyl)benzoylamino]-5-(4-(methyl-pyrimidin-2-ylamino)phenyl)pent-4-enoic acid (XXI) described in WO 99/26923 was used.

Setting [4] is: Jurkat cell adhesion to ligand-expressing cells or ligand-immobilized plate, 37° C., 30 minutes.

As for `CCCCN(c1ccc(/C=C/CC(NC(=O)c2c(Cl)cccc2Cl)C(=O)O)cc1)c1ncccn1` (stereo not shown) [Example 37, (E)-5-(4-Butyl-pyrimidin-2-yl-amino)-phenyl]-2-(2,6-dichlorobenzamido)-pent-4-enoic acid sodium salt], in data set [1], the IC50 stood at 0.16 µM.

In the case of `CC(C)N(c1ccc(/C=C/C[C@H](NC(=O)c2c(Cl)cccc2Cl)C(=O)[O-])cc1)c1ncccn1.[Na+]` [Example 84, (S,E)-2-(2,6-Dichlorobenzamido)-5-[4-(isopropyl-pyrimidin-2-ylamino)phenyl]pent-4-enoic acid sodium salt], in data set [2], the “rate of reduction of increase in the score of neurological symptoms” value amounted to 67%. Also, in data set [3], the clearance was 19.6 mL/min/kg and the bioavailability was 58.5%.

On to `CC(C)CN(c1ccc(/C=C/CC(NC(=O)c2c(Cl)cccc2Cl)C(=O)O)cc1)c1ncccn1` (stereo not shown) [Example 55, (E)-2-(2,6-Dichlorobenzamido)-5-[4-(isobutyl-pyrimidin-2-ylamino)phenyl]pent-4-enoic acid sodium salt], for which the IC50 in data set [1] was determined as 0.42 µM.

As for `COC1(c2ccc(/C=C/C[C@H](NC(=O)c3c(Cl)cccc3Cl)C(=O)O)cc2)CCOCC1` [Example 77, (S,E)-2-(2,6-Dichlorobenzamido)-5-[4-(4-methoxytetrahydropyran-4-yl)-phenyl]pent-4-enoic acid], the “rate of reduction of increase in the score of neurological symptoms” value in data set [2] is 40%. Moreover, the IC50 in data set [1] (setting [4]) was 0.049 µM. Also, in data set [3], the clearance is 16 mL/min/kg and the bioavailability is 20%.

Consider `CN(c1ccc(/C=C/C[C@H](NC(=O)c2c(Cl)cccc2Cl)C(=O)[O-])cc1)c1ncccn1.[Na+]` [Example 81, (S,E)-2-(2,6-Dichlorobenzamido)-5-[4-(methyl-pyrimidin-2-ylamino)phenyl]pent-4-enoic acid sodium salt], for which the “rate of reduction of increase in the score of neurological symptoms” value in data set [2] came out at 68%. Also, in data set [3], the clearance was 16.1 mL/min/kg and the bioavailability was found to be 50.9%.

`CN(c1ccc(/C=C/C[C@H](NC(=O)c2c(Cl)cccc2Cl)C(=O)O)cc1)c1ncccn1` [Example 80, (S,E)-2-(2,6-Dichlorobenzamido)-5-[4-(methyl-pyrimidin-2-ylamino)phenyl]pent-4-enoic acid]: the “rate of reduction of increase in the score of neurological symptoms” value in data set [2] is recorded as 60%. Besides, the IC50 in data set [1] (setting [4]) was 0.095 µM. Further, in data set [3], the clearance is 15.1 mL/min/kg and the bioavailability was determined as 47.6%.

Turning to `COC1(c2ccc(/C=C/C[C@H](NC(=O)c3c(Cl)cccc3Cl)C(=O)[O-])cc2)CCOCC1.[Na+]` [Example 78, (S,E)-2-(2,6-Dichlorobenzamido)-5-[4-(4-methoxytetrahydropyran-4-yl)-phenyl]pent-4-enoic acid sodium salt], the “rate of reduction of increase in the score of neurological symptoms” value in data set [2] is reported as 60%. Also, in data set [3], the clearance was 16.6 mL/min/kg and the bioavailability was found to be 26.1%.

On to `O=C(NC(C/C=C/c1ccc(N(CC2CC2)c2ncccn2)cc1)C(=O)O)c1c(Cl)cccc1Cl` (stereo not shown) [Example 53, (E)-5-[4-(Cyclopropylmethyl-pyrimidin-2-ylamino)phenyl]-2-(2,6-dichlorobenzamido)pent-4-enoic acid sodium salt], for which the IC50 in data set [1] was determined as 0.12 µM.

With `CC(C)N(c1ccc(/C=C/C[C@H](NC(=O)c2c(Cl)cccc2Cl)C(=O)O)cc1)c1ncccn1` [Example 83, (S,E)-2-(2,6-Dichlorobenzamido)-5-[4-(isopropyl-pyrimidin-2-ylamino)phenyl]pent-4-enoic acid], the “rate of reduction of increase in the score of neurological symptoms” value in data set [2] worked out at 70%. Also, the IC50 in data set [1] (setting [4]) is 0.017 µM. In data set [3], the clearance was 18.1 mL/min/kg and the bioavailability stood at 40%.

Take `CC(C)=CCN(c1ccc(/C=C/CC(NC(=O)c2c(Cl)cccc2Cl)C(=O)O)cc1)c1ncccn1` (stereo not shown) [Example 51, (E)-2-(2,6-Dichlorobenzamido)-5-[4-((3-methyl-2-butenyl)-pyrimidin-2-ylamino)phenyl]pent-4-enoic acid sodium salt]: the IC50 in data set [1] (setting [4]) came to 0.1 µM.

The record behind these values is US7879837B2, “Therapeutic or prophylactic agent for multiple sclerosis” (Toray Industries, Inc., priority 2006, dated 2011).
